Measured values taken from paper PMC3714282, “Pharmacometabolomics of Response to Sertraline and to Placebo in Major Depressive Disorder – Possible Role for Methoxyindole Pathway” (PLoS ONE, 2013).

Test system: serum metabolites (tryptophan, tyrosine, purine pathways, antioxidants)
Experiment: LCECA metabolomic profiling of serum: change from baseline at week 1 and week 4 (all, responders, non-responders)
Type: in vivo, human
Conditions: serum; for Change 5-HT / Change 5-HTP / Change 5-MTPOL / Change 7-MXAN / Change ATOCO / Change CYS / Change DIOHMAL / Change DOPAC / Change DTOCO / Change GR / Change GRMP / Change GSH / Change HGA / Change HVA / Change HX / Change KYN / Change LD / Change MEL / Change METH / Change MHPG / Change NA-5-HT / Change TRP / Change TRPOL / Change TYR / Change UA / Change VMA / Change XAN / Change XANTH / Change 3-OHKY / Change 3-OMD / Change 4-HBAC / Change 4-HPAC / Change 4-HPLA / Change 5-HIAA: log-transformed concentration; for Change in ratio 3-OHKY/5-HT, Estimate / Change in ratio 3-OHKY/5-HTP, Estimate / Change in ratio 3-OHKY/5-MTPOL, Estimate / Change in ratio 3-OHKY/MEL, Estimate / Change in ratio 3-OHKY/NA-5-HT, Estimate / Change in ratio 3-OHKY/TRP, Estimate / Change in ratio KYN/5-HT, Estimate / Change in ratio KYN/5-HTP, Estimate / Change in ratio KYN/5-MTPOL, Estimate / Change in ratio KYN/MEL, Estimate / Change in ratio KYN/NA-5-HT, Estimate / Change in ratio KYN/TRP, Estimate: pre- to post-treatment (four weeks)
Text: Study participants were outpatients, 18–65 years of age, from various clinical sites across the United States. […] A complete description of the inclusion and exclusion used in this study can be found in Table S1. The study protocol was developed in accordance with the principles of the Declaration of Helsinki. All patients provided written informed consent. The study was sponsored and monitored by Pfizer, Inc. Each site's institutional review board approved and oversaw the study. The primary outcome measure was the HAMD17, used to assess depressive symptom severity. Measures were gathered at baseline, and weeks 1 and 4 of treatment at the patient's visits. Serum samples were collected using standard protocol at baseline, week 1 and week 4 of treatment at the clinic visits. Whole blood was collected in serum collection tubes and inverted 5–8 times. Serum samples were allowed to clot at room temperature for 60 minutes and then centrifuged at 1,300×g for 15 minutes. Following centrifugation supernatant was frozen at −80°C until analysis.
Samples were analyzed using a liquid chromatography electrochemical array (LCECA) platform that has been extensively validated and used in our prior studies in neurodegenerative and psychiatric disorders [30]–[34]. The method includes multiple compounds from the tyrosine, tryptophan, sulfur amino acids and purine pathways, and markers of oxidative stress and protection (for the list of metabolites and abbreviations see Table 1). Levels of 5-Methoxytryptamine (5-MTPM) were measured using a gas chromatography time-of-flight-mass spectrometry (GCTOF-MS) platform. Samples were prepared for analysis as previously described. During the sample preparation, pools were created from equal volumes of subaliquots of all samples. Concentrations of metabolites in the individual samples were expressed as a percentage of the concentration of those metabolites in the averaged pool.
Data preprocessing: We first removed the metabolites that have more than 40% missing values. […] Principal components analysis (PCA; SIMCA-P+12.0) was used to identify outliers. The analysis was performed for each time point. […] Subjects with ≥3 standard deviations away from the center of data cloud within two principal components (PC's) scores scatter plot were considered outliers and were removed from further analysis.
These analyses were conducted separately for the sertraline and placebo groups. Between groups t-tests were used to compare baseline to one week and baseline to four week change scores between the sertraline and placebo groups.
Signatures of response to sertraline and placebo were identified by using paired t-tests to compare week 4 metabolite levels to baseline metabolite levels in the responders and non-responders to therapy. […] These analyses were also performed to evaluate changes in ratios of individual metabolites within (e.g., 5-HT/5-HTP) and between branches of tryptophan pathway (e.g., KYN/MEL).

[1] = after four weeks, sertraline group
[2] = after one week, responders to sertraline
[3] = after one week, sertraline group

CN[C@H]1CC[C@@H](c2ccc(Cl)c(Cl)c2)c2ccccc21 [Sertraline, sertraline]
Change 5-HT [1]: −1.9 | Change 5-HTP [1]: 0.12 | Change 5-MTPOL [1]: 0.13 | Change 7-MXAN [1]: 0.083 | Change ATOCO [1]: 0.63 | Change CYS [1]: −0.0014 | Change DIOHMAL [1]: 0.37 | Change DOPAC [1]: −0.014 | Change DTOCO [1]: 0.71 | Change GR [1]: 0.0002 | Change GRMP [1]: 0.052 | Change GSH [1]: 0.014 | Change HGA [1]: 0.4 | Change HVA [1]: 0.1 | Change HX [1]: −0.0057 | Change KYN [1]: 0.045 | Change LD [1]: 0.12 | Change MEL [1]: 0.49 | Change METH [1]: 0.2 | Change MHPG [1]: −0.21 | Change NA-5-HT [1]: 0.041 | Change TRP [1]: 0.07 | Change TRPOL [1]: 0.061 | Change TYR [1]: 0.13 | Change UA [1]: −0.058 | Change VMA [1]: −0.015 | Change XAN [1]: −0.16 | Change XANTH [1]: 0.047 | Change 3-OHKY [2]: -0.02 | Change 3-OMD [2]: -0.18 | Change 4-HBAC [2]: 0.49 | Change 4-HPAC [2]: 0.47 | Change 4-HPLA [2]: 0.18 | Change 5-HIAA [2]: -0.14 | Change 5-HT [2]: -0.79 | Change 5-HTP [2]: -0.06 | Change 5-MTPOL [2]: 0.15 | Change 7-MXAN [2]: -0.51 | Change ATOCO [2]: 0.4 | Change CYS [2]: 0.0024 | Change DIOHMAL [2]: 0.2 | Change DOPAC [2]: -0.048 | Change DTOCO [2]: 0.75 | Change GR [2]: 0.17 | Change GRMP [2]: -0.0083 | Change GSH [2]: -0.02 | Change HGA [2]: 0.19 | Change HVA [2]: 0.13 | Change HX [2]: -0.075 | Change KYN [2]: 0.052 | Change LD [2]: 0.13 | Change MEL [2]: 0.41 | Change METH [2]: 0.0032 | Change MHPG [2]: -0.33 | Change NA-5-HT [2]: -0.022 | Change TRP [2]: 0.044 | Change TRPOL [2]: 0.082 | Change TYR [2]: -0.027 | Change UA [2]: -0.048 | Change VMA [2]: 0.1 | Change XAN [2]: -0.21 | Change XANTH [2]: 0.033 | Change 3-OHKY [3]: −0.074 | Change 3-OMD [3]: −0.12 | Change 4-HBAC [3]: −0.085 | Change 4-HPAC [3]: 0.29 | Change 4-HPLA [3]: 0.1 | Change 5-HIAA [3]: −0.17 | Change 5-HT [3]: −0.75 | Change 5-HTP [3]: −0.11 | Change 5-MTPOL [3]: 0.041 | Change 7-MXAN [3]: −0.099 | Change ATOCO [3]: 0.21 | Change CYS [3]: −0.034 | Change DIOHMAL [3]: 0.18 | Change DOPAC [3]: −0.13 | Change DTOCO [3]: 0.3 | Change GR [3]: −0.23 | Change GRMP [3]: −0.011 | Change GSH [3]: −0.013 | Change HGA [3]: 0.28 | Change HVA [3]: 0.053 | Change HX [3]: −0.07 | Change KYN [3]: −0.045 | Change LD [3]: 0.081 | Change MEL [3]: 0.34 | Change METH [3]: 0.097 | Change MHPG [3]: −0.17 | Change NA-5-HT [3]: 0.0079 | Change TRP [3]: 0.0036 | Change TRPOL [3]: 0.033 | Change TYR [3]: 0.083 | Change UA [3]: −0.077 | Change VMA [3]: 0.11 | Change XAN [3]: −0.19 | Change XANTH [3]: 0.082 | Change in ratio 3-OHKY/5-HT, Estimate (Nonresponder to sertraline): 0.69 | Change in ratio 3-OHKY/5-HTP, Estimate (Nonresponder to sertraline): −0.099 | Change in ratio 3-OHKY/5-MTPOL, Estimate (Nonresponder to sertraline): −0.035 | Change in ratio 3-OHKY/MEL, Estimate (Nonresponder to sertraline): −0.11 | Change in ratio 3-OHKY/NA-5-HT, Estimate (Nonresponder to sertraline): 0.0038 | Change in ratio 3-OHKY/TRP, Estimate (Nonresponder to sertraline): −0.04 | Change in ratio KYN/5-HT, Estimate (Nonresponder to sertraline): 0.72 | Change in ratio KYN/5-HTP, Estimate (Nonresponder to sertraline): −0.076 | Change in ratio KYN/5-MTPOL, Estimate (Nonresponder to sertraline): −0.012 | Change in ratio KYN/MEL, Estimate (Nonresponder to sertraline): −0.085 | Change in ratio KYN/NA-5-HT, Estimate (Nonresponder to sertraline): 0.027 | Change in ratio KYN/TRP, Estimate (Nonresponder to sertraline): −0.017 | Change in ratio 3-OHKY/5-HT, Estimate (Responder to sertraline): 0.97 | Change in ratio 3-OHKY/5-HTP, Estimate (Responder to sertraline): 0.025 | Change in ratio 3-OHKY/5-MTPOL, Estimate (Responder to sertraline): −0.043 | Change in ratio 3-OHKY/MEL, Estimate (Responder to sertraline): −0.27 | Change in ratio 3-OHKY/NA-5-HT, Estimate (Responder to sertraline): −0.00032 | Change in ratio 3-OHKY/TRP, Estimate (Responder to sertraline): 0.013 | Change in ratio KYN/5-HT, Estimate (Responder to sertraline): 0.95 | Change in ratio KYN/5-HTP, Estimate (Responder to sertraline): 0.0057 | Change in ratio KYN/5-MTPOL, Estimate (Responder to sertraline): −0.062 | Change in ratio KYN/MEL, Estimate (Responder to sertraline): −0.28 | Change in ratio KYN/NA-5-HT, Estimate (Responder to sertraline): −0.019 | Change in ratio KYN/TRP, Estimate (Responder to sertraline): −0.006
